Assay results as given in patent US12545659B2, “IRAK degraders and uses thereof” (Kymera Therapeutics, Inc., priority 2019, dated 2026).

molecular target: T1, IRAK4 (Homo sapiens, UniProt Q9NWZ3); assay: IRAK4 MSD Degradation in OCI-LY10; assay type: cell-based; settings: OCI-LY10 cells, 4 hrs incubation, read-out: IRAK4 degradation in OCI-LY10 at 4 hrs: DC50
T1 construct: endogenous in cells; host or cells: OCI-LY10
T1 sequence (Q9NWZ3 1-460): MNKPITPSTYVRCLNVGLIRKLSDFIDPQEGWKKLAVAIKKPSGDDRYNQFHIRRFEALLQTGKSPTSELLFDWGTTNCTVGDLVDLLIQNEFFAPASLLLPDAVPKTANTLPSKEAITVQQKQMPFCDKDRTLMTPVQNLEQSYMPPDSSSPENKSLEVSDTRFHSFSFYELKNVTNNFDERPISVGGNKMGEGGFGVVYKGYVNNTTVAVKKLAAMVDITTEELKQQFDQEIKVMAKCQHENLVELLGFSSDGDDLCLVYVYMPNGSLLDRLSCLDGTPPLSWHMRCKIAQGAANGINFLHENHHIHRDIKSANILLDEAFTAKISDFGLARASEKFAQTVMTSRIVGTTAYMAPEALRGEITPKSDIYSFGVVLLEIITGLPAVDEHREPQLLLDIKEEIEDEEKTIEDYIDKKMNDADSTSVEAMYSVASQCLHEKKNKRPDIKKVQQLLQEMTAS
Protocol: Degradation of IRAK4 in OCI-LY10 was quantitatively measured using Meso Scale Discovery technology. […] Compounds were then added to the assay plates with a final top concentration of 1 to 10 μM in a 1:3 dilution series with total of 8 doses. The assay plates were then incubated for 4 to 24 hours at 37° C. under 5% C02. […] To prepare MSD assay plates (Meso Scale Discovery Catalog number L15XA-3), the plates were coated with […] capture antibody (mouse Anti-IRAK4 antibody [2H9], ab119942) in PBS, at 40 μL/well. […] Cell lysates were then added to MSD assay plates and the plates were incubated at room temperature for 1 hour. The plates were then washed 3 times with 150 μL/well TBST buffer and 25 μL/well primary detection antibody (rabbit Anti-IRAK4 antibody [Y279], from Abcam. Catalog number ab32511, 1 μg/mL). The assay plates were then incubated at room temperature for 1 hour, washed 3 times with 150 μL/well TBST buffer and 25 μL/well secondary detection antibody, SULFO-TAG anti-rabbit antibody were added (anti rabbit antibody from Meso Scale Discovery, Catalog number R32AB-1, 1 μg/mL). The assay plates were then incubated at room temperature for 1 hour, washed 3 times with 150 μL/well TBST buffer, and 150 μL/well MSD reading buffer (Meso Scale Discovery catalog number R92TC-2) was added. The plates were then analyzed by a MSD reader (Meso Scale Discovery, Model Quick Plex SQ 120). The data was then analyzed by software Prism 7.0 from GraphPad and the dose-depended IRAK4 degradation were fit using a three-parameter logistic equation to calculate DC50.
The letter codes for IRAK4 […] include: A (<0.05 μM); B (0.05-0.1 μM); C (0.1-0.5 μM); D (0.5-1.0 μM); and E (>1.0 μM).

Structure (SMILES)	DC50 [nM]
Cn1c(=O)n(C2CCC(=O)NC2=O)c2cccc([C@H]3CC[C@H](N(C)C[C@H]4CC[C@H](n5cc6cc(NC(=O)c7cccc(C(F)(F)F)n7)c(C(F)F)cc6n5)CC4)CC3)c21 (single isomer, unassigned) [I-164, N-[6-(difluoromethyl)-2-[4-[[[4-[1-(2,6-dioxo-3-piperidyl)-3-methyl-2-oxo-benzimidazol-4-yl]cyclohexyl]-methyl-amino]methyl]cyclohexyl]indazol-5-yl]-6-(trifluoromethyl)pyridine-2-carboxamide]	< 50
Cn1c(=O)n(C2CCC(=O)NC2=O)c2cccc([C@H]3CC[C@@H](N(C)C[C@H]4CC[C@H](n5cc6cc(NC(=O)c7cccc(C(F)(F)F)n7)c(C(F)F)cc6n5)CC4)CC3)c21 (single isomer, unassigned) [I-165, N-[6-(difluoromethyl)-2-[4-[[[4-[1-(2,6-dioxo-3-piperidyl)-3-methyl-2-oxo-benzimidazol-4-yl]cyclohexyl]-methyl-amino]methyl]cyclohexyl]indazol-5-yl]-6-(trifluoromethyl)pyridine-2-carboxamide]	< 50
Cn1c(=O)n(C2CCC(=O)NC2=O)c2cccc([C@H]3CC[C@@H](N(C)C[C@H]4CC[C@H](n5cc6cc(NC(=O)c7cccc(C(F)(F)F)n7)c(C(C)(C)O)cc6n5)CC4)CC3)c21 (single isomer, unassigned) [I-174, N-[2-[4-[[[4-[1-(2,6-dioxo-3-piperidyl)-3-methyl-2-oxo-benzimidazol-4-yl]cyclohexyl]-methyl-amino]methyl]cyclohexyl]-6-(1-hydroxy-1-methyl-ethyl)indazol-5-yl]-6-(trifluoromethyl)pyridine-2-carboxamide]	< 50
Cn1c(=O)n(C2CCC(=O)NC2=O)c2cccc([C@H]3CC[C@H](N(C)C[C@H]4CC[C@H](n5cc6cc(NC(=O)c7cccc(C(F)(F)F)n7)c(C(C)(C)O)cc6n5)CC4)CC3)c21 (single isomer, unassigned) [I-175, N-[2-[4-[[[4-[1-(2,6-dioxo-3-piperidyl)-3-methyl-2-oxo-benzimidazol-4-yl]cyclohexyl]-methyl-amino]methyl]cyclohexyl]-6-(1-hydroxy-1-methyl-ethyl)indazol-5-yl]-6-(trifluoromethyl)pyridine-2-carboxamide]	< 50
CN(C[C@H]1CC[C@H](n2ncc3cc(NC(=O)c4cccc(C(F)(F)F)n4)c(C(C)(C)O)cc32)CC1)C1CCN(Cc2cccc3c2n(C)c(=O)n3C2CCC(=O)NC2=O)CC1 (stereo partly shown) [I-34]	500 to 1000
CN(CC1CCN(c2cccc3c2C(=O)N(C2CCC(=O)NC2=O)C3=O)CC1)C[C@H]1CC[C@H](n2cc3cc(NC(=O)c4cccc(C(F)(F)F)n4)c(C(C)(C)O)cc3n2)CC1 (stereo partly shown) [I-40]	50 to 100
CN(C(=O)[C@H]1CC[C@H](n2cc3cc(NC(=O)c4cccc(C(F)(F)F)n4)c(C(C)(C)O)cc3n2)CC1)C1CCN(Cc2cccc3c2n(C)c(=O)n3C2CCC(=O)NC2=O)CC1 (stereo partly shown) [I-43]	< 50
Cn1c(=O)n(C2CCC(=O)NC2=O)c2cccc(CN3CC4(CCN(C(=O)[C@H]5CC[C@H](n6cc7cc(NC(=O)c8cccc(C(F)(F)F)n8)c(C(C)(C)O)cc7n6)CC5)CC4)C3)c21 (stereo partly shown) [I-44]	< 50
Cn1c(=O)n(C2CCC(=O)NC2=O)c2cccc(CN3CC4(C3)CN(C(=O)[C@H]3CC[C@H](n5cc6cc(NC(=O)c7cccc(C(F)(F)F)n7)c(C(C)(C)O)cc6n5)CC3)C4)c21 (stereo partly shown) [I-45, N-[2-[4-[6-[[1-(2,6-dioxo-3-piperidyl)-3-methyl-2-oxo-benzimidazol-4-yl]methyl]-2,6-diazaspiro[3.3]heptane-2-carbonyl]cyclohexyl]-6-(1-hydroxy-1-methyl-ethyl)indazol-5-yl]-6-(trifluoromethyl)pyridine-2-carboxamide]	50 to 100
Cc1cccc(C(=O)Nc2cc3cn([C@H]4CC[C@H](CN(C)C5CCN(Cc6cccc7c6n(C)c(=O)n7C6CCC(=O)NC6=O)CC5)CC4)nc3cc2C(C)(C)O)n1 (stereo partly shown) [I-48]	< 50
Cn1c(=O)n(C2CCC(=O)NC2=O)c2cccc(CN3CC4(CN(Cc5ccc(-n6cc7cc(NC(=O)c8cccc(C(F)(F)F)n8)c(C(C)(C)O)cc7n6)cc5)C4)C3)c21 (stereo not shown) [I-49]	50 to 100
CN(C[C@H]1CC[C@H](n2cc3cc(NC(=O)c4cnn5cccnc45)c(C(C)(C)O)cc3n2)CC1)C1CCN(Cc2cccc3c2n(C)c(=O)n3C2CCC(=O)NC2=O)CC1 (stereo partly shown) [I-50]	< 50
Cn1c(=O)n(C2CCC(=O)NC2=O)c2cccc(CN3CCOC4(CCN(Cc5ccc(-n6cc7cc(NC(=O)c8cccc(C(F)(F)F)n8)c(C(C)(C)O)cc7n6)cc5)CC4)C3)c21 (stereo not shown) [I-52]	50 to 100
Cn1c(=O)n(C2CCC(=O)NC2=O)c2cccc(CCC3CC4(CCN(C[C@H]5CC[C@H](n6cc7cc(NC(=O)c8cccc(C(F)(F)F)n8)c(C(C)(C)O)cc7n6)CC5)CC4)C3)c21 (stereo partly shown) [I-53]	< 50
CN(C[C@H]1CC[C@H](n2cc3cc(NC(=O)c4ccccn4)c(C(C)(C)O)cc3n2)CC1)C1CCN(Cc2cccc3c2n(C)c(=O)n3C2CCC(=O)NC2=O)CC1 (stereo partly shown) [I-54]	50 to 100
Cn1c(=O)n(C2CCC(=O)NC2=O)c2cccc(CCN3CC4(CCN(C[C@H]5CC[C@H](n6cc7cc(NC(=O)c8cccc(C(F)(F)F)n8)c(C(C)(C)O)cc7n6)CC5)CC4)C3)c21 (stereo partly shown) [I-55]	< 50
Cn1c(=O)n(C2CCC(=O)NC2=O)c2cccc(CC3CC4(CCN(C[C@H]5CC[C@H](n6cc7cc(NC(=O)c8cccc(C(F)(F)F)n8)c(C(C)(C)O)cc7n6)CC5)CC4)C3)c21 (stereo partly shown) [I-56]	< 50
Cn1c(=O)n(C2CCC(=O)NC2=O)c2cccc(CN3CC4(CCN(C[C@H]5CC[C@H](n6cc7cc(NC(=O)c8cccc(C(F)(F)F)n8)c(C(C)(C)O)cc7n6)CC5)CC4)C3)c21 (stereo partly shown) [I-57]	< 50

same assay, conditions: OCI-LY10 cells, 24 hrs incubation, read-out: IRAK4 degradation in OCI-LY10 at 24 hrs: DC50

Structure (SMILES)	DC50 [nM]
COc1cc2nn([C@H]3CC[C@H](CN4CCC5(CC4)CC(CCNc4cccc6c4C(=O)N(C4CCC(=O)NC4=O)C6=O)C5)CC3)cc2cc1NC(=O)c1cccc(C(C)(F)F)n1 (single isomer, unassigned) [I-128]	50 to 100
COc1cc2nn([C@H]3CC[C@H](CN4CCC5(CC4)CC(CCNc4cccc6c4C(=O)N(C4CCC(=O)NC4=O)C6=O)C5)CC3)cc2cc1NC(=O)c1cccc(C(C)(F)F)n1 (single isomer, unassigned) [I-129]	50 to 100
CN(CCCOCCCNc1cccc2c1C(=O)N(C1CCC(=O)NC1=O)C2=O)C[C@H]1CC[C@H](n2cc3cc(NC(=O)c4cccc(C(F)(F)F)n4)c(C(C)(C)O)cc3n2)CC1 (stereo partly shown) [I-31]	50 to 100
CN(C[C@H]1CC[C@H](n2cc3cc(NC(=O)c4cccc(C(F)(F)F)n4)c(C(C)(C)O)cc3n2)CC1)C1CCC2(CC1)CC(CNc1cccc3c1C(=O)N(C1CCC(=O)NC1=O)C3=O)C2 (stereo partly shown) [I-32]	< 50
O=C1CCC(N2C(=O)c3cccc(NCCCOCC4CCN(C[C@H]5CC[C@H](n6cc7cc(NC(=O)c8cccc(C(F)(F)F)n8)c(C(F)F)cc7n6)CC5)CC4)c3C2=O)C(=O)N1 (stereo partly shown) [I-33]	50 to 100
CC(C)(O)c1cc2nn([C@H]3CC[C@H](CN4CCC5(CC4)CC(Nc4cccc6c4C(=O)N(C4CCC(=O)NC4=O)C6=O)C5)CC3)cc2cc1NC(=O)c1cccc(C(F)(F)F)n1 (stereo partly shown) [I-35, N-[2-[4-[[2-[[2-(2,6-dioxo-3-piperidyl)-1,3-dioxo-isoindolin-4-yl]amino]-7-azaspiro [3.5]nonan-7-yl]methyl]cyclohexyl]-6-(1-hydroxy-1-methyl-ethyl)indazol-5-yl]-6-(trifluoromethyl)pyridine-2-carboxamide]	< 50
CN(CCCO[C@H]1C[C@H](Nc2cccc3c2C(=O)N(C2CCC(=O)NC2=O)C3=O)C1)C[C@H]1CC[C@H](n2cc3cc(NC(=O)c4cccc(C(F)(F)F)n4)c(C(C)(C)O)cc3n2)CC1 (stereo partly shown) [I-41]	< 50
CC(C)(O)c1cc2nn([C@H]3CC[C@H](CN4CCC5(CC4)CC(CNc4cccc6c4C(=O)N(C4CCC(=O)NC4=O)C6=O)C5)CC3)cc2cc1NC(=O)c1cccc(C(F)(F)F)n1 (stereo partly shown) [I-42]	< 50
O=C1CCC(N2C(=O)c3cccc(NCC4CC5(CCN(C[C@H]6CC[C@H](n7cc8cc(NC(=O)c9cccc(C(F)(F)F)n9)c(C(F)F)cc8n7)CC6)CC5)C4)c3C2=O)C(=O)N1 (stereo partly shown) [I-46]	50 to 100
Cc1cccc(C(=O)Nc2cc3cn([C@H]4CC[C@H](CN(C)[C@H]5CC[C@H](Nc6cccc7c6C(=O)N(C6CCC(=O)NC6=O)C7=O)CC5)CC4)nc3cc2C(C)(C)O)n1 (stereo partly shown) [I-47]	< 50
